In general, Ki refers to the equilibrium dissociation constant of an inhibitor or competing ligand from its target.

The target of one assay is T1, GABA-A receptor; alpha-3/beta-3/gamma-2 (Homo sapiens, UniProt P18507+P28472+P34903).
T1 sequence (P18507 whole entry): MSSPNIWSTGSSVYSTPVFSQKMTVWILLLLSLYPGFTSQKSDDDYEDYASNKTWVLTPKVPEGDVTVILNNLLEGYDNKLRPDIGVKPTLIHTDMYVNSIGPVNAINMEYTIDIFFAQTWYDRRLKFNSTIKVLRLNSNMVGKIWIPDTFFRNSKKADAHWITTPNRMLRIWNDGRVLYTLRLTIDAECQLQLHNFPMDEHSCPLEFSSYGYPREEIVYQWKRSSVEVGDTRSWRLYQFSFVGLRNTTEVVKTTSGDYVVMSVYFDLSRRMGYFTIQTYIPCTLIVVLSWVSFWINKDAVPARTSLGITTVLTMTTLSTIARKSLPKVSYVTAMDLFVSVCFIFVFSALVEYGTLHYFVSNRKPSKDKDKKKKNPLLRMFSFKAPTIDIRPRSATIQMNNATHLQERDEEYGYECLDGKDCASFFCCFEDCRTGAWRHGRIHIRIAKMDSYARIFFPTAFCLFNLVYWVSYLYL
T1 sequence (P28472 whole entry): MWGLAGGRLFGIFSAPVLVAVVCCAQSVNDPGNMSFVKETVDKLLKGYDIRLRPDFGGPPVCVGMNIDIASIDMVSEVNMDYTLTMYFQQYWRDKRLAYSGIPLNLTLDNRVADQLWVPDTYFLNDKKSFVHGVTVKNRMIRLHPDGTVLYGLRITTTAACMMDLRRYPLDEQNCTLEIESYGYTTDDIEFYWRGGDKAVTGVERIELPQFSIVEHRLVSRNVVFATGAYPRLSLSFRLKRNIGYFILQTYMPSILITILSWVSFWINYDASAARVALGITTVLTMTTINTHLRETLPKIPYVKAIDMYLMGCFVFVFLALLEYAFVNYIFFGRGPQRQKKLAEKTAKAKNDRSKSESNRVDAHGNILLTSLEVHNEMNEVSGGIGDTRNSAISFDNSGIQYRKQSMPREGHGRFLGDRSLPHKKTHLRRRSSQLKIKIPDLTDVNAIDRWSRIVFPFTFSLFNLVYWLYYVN
T1 sequence (P34903 whole entry): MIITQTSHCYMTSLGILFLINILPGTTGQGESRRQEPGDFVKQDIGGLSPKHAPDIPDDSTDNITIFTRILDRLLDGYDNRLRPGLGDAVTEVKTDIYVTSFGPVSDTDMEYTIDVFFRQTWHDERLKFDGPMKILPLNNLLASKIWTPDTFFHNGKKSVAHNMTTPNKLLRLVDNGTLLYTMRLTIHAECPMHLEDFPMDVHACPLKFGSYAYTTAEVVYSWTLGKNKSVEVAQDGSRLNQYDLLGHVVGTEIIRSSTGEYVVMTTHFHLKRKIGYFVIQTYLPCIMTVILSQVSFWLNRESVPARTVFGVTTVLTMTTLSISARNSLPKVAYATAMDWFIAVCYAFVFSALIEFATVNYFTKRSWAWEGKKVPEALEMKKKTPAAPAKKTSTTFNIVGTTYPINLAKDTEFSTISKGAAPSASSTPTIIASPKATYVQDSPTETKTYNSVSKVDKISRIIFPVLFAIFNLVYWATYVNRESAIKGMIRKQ
Put plainly: Displacement of [3H]Ro 15-1788 from recombinant human GABA-Aalpha3 receptor plus beta-3-gamma-2 expressed in L(tk-) cells. It is filed as cell-based. (In general: Loss of bound radioactivity is the signal in a displacement assay; it reports binding, not function.)
`N#Cc1ccccc1-c1ccnc(-c2cnc3nc(C(F)(F)F)ccn23)c1`: the Ki was more than 33 nM.

For the compound `COc1ccccc1-c1cc(-c2cnc3nc(C(F)(F)F)ccn23)ccn1`, the inhibitory constant (Ki) worked out at 6.1 nM.

`FC(F)(F)c1ccn2c(-c3cccc(Br)n3)cnc2n1`: the inhibition constant (Ki) came out at 0.68 nM.

As for `FC(F)(F)c1ccn2c(-c3ccccn3)cnc2n1`, the inhibition constant (Ki) amounted to 11 nM.

For the compound `FC(F)(F)c1cccc(-c2cnc3nc(C(F)(F)F)ccn23)n1`, the inhibitory constant (Ki) amounted to 0.88 nM.

With `FC(F)(F)c1ccn2c(-c3cc(Cl)ncn3)cnc2n1`, the Ki was more than 33 nM.

As to `FC(F)(F)c1ccn2c(-c3cc(Cl)ccn3)cnc2n1`, the Ki is more than 33 nM.

With `Fc1ccccc1-c1cc(-c2cnc3nc(C(F)(F)F)ccn23)ccn1`, the Ki is 14 nM.

For the compound `N#Cc1ccccc1-c1cncc(-c2cnc3nc(C(F)(F)F)ccn23)c1`, the inhibition constant (Ki) was more than 33 nM.

As for `CCO/N=C(\C)c1ccc2c(c1)ncn2-c1cccc(-c2cccnc2)c1`, the inhibition constant Ki was 13 nM.

The next assay deals with GABA-A receptor; alpha-3/beta-3/gamma-2 (Homo sapiens) (UniProt P18507+P28472+P34903). The experiment in a line: Efficacy against recombinant human GABA-Aalpha3 receptor plus beta-3-gamma-2 as measured by modulation of chloride ion flux. It is filed as functional.
`COc1ccccc1-c1cc(-c2cnc3nc(C(F)(F)F)ccn23)ccn1`: the Efficacy came to 54%.

Take `FC(F)(F)c1ccn2c(-c3cccc(Br)n3)cnc2n1`: the Efficacy came out at 2%.

Consider `FC(F)(F)c1ccn2c(-c3ccccn3)cnc2n1`, for which the Efficacy was -7%.

As to `FC(F)(F)c1cccc(-c2cnc3nc(C(F)(F)F)ccn23)n1`, the Efficacy was -40%.

On to `Fc1ccccc1-c1cc(-c2cnc3nc(C(F)(F)F)ccn23)ccn1`, for which the Efficacy turned out to be 23%.

Consider `N#Cc1ccccc1-c1cncc(-c2cnc3nc(C(F)(F)F)ccn23)c1`, for which the Efficacy is -39%.

In a further assay the target is T2, GABA-A receptor; alpha-1/beta-3/gamma-2 (Homo sapiens, UniProt P14867+P18507+P28472).
T2 sequence (P14867 whole entry): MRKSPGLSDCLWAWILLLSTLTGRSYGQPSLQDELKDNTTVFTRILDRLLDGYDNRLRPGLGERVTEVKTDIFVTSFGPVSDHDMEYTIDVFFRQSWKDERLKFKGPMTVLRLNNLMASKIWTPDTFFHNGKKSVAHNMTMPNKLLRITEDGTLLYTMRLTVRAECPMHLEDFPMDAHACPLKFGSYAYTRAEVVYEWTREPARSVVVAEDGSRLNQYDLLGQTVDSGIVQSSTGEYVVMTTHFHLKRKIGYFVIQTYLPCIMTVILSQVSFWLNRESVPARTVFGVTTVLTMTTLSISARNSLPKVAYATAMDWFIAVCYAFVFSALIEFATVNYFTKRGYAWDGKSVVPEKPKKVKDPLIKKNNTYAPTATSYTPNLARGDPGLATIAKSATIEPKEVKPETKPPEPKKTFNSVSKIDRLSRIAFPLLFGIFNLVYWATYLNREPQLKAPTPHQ
T2 sequence (P18507 whole entry): T1 sequence (P18507 whole entry)
T2 sequence (P28472 whole entry): T1 sequence (P28472 whole entry)
The experiment in a line: Displacement of [3H]Ro 15-1788 from recombinant human GABA-Aalpha1 receptor plus beta-3-gamma-2 expressed in L(tk-) cells. It is filed as cell-based.
`N#Cc1ccccc1-c1ccnc(-c2cnc3nc(C(F)(F)F)ccn23)c1`: the Ki was more than 33 nM.

Consider `COc1ccccc1-c1cc(-c2cnc3nc(C(F)(F)F)ccn23)ccn1`, for which the Ki was 5.8 nM.

For the compound `FC(F)(F)c1ccn2c(-c3cccc(Br)n3)cnc2n1`, the Ki was 0.31 nM.

`FC(F)(F)c1ccn2c(-c3ccccn3)cnc2n1`: the Ki was 9.1 nM.

For the compound `FC(F)(F)c1cccc(-c2cnc3nc(C(F)(F)F)ccn23)n1`, the Ki amounted to 0.31 nM.

Turning to `FC(F)(F)c1ccn2c(-c3cc(Cl)ncn3)cnc2n1`, the Ki was more than 33 nM.

Consider `FC(F)(F)c1ccn2c(-c3cc(Cl)ccn3)cnc2n1`, for which the Ki is more than 33 nM.

In the case of `Fc1ccccc1-c1cc(-c2cnc3nc(C(F)(F)F)ccn23)ccn1`, the Ki stood at 8.3 nM.

In the case of `N#Cc1ccccc1-c1cncc(-c2cnc3nc(C(F)(F)F)ccn23)c1`, the inhibition constant Ki worked out at 18 nM.

As for `CCO/N=C(\C)c1ccc2c(c1)ncn2-c1cccc(-c2cccnc2)c1`, the Ki is 1.9 nM.

The next assay has as its target GABA-A receptor; alpha-1/beta-3/gamma-2 (Homo sapiens) (UniProt P14867+P18507+P28472). Put plainly: Efficacy against recombinant human GABA-Aalpha1 receptor plus beta-3-gamma-2 as measured by modulation of chloride ion flux. It is filed as functional.
Regarding `COc1ccccc1-c1cc(-c2cnc3nc(C(F)(F)F)ccn23)ccn1`, the Efficacy turned out to be 35%.

Consider `FC(F)(F)c1ccn2c(-c3cccc(Br)n3)cnc2n1`, for which the Efficacy turned out to be 11%.

For the compound `FC(F)(F)c1ccn2c(-c3ccccn3)cnc2n1`, the Efficacy was -40%.

`FC(F)(F)c1cccc(-c2cnc3nc(C(F)(F)F)ccn23)n1`: the Efficacy is -24%.

As for `Fc1ccccc1-c1cc(-c2cnc3nc(C(F)(F)F)ccn23)ccn1`, the Efficacy came to 6%.

With `N#Cc1ccccc1-c1cncc(-c2cnc3nc(C(F)(F)F)ccn23)c1`, the Efficacy was -55%.
